Among the test systems are MALME-3M melanoma; NCI-H226 lung; KM12 colon; HOP-92 NSCLC; T-47D breast; OVCAR-3 ovarian; SN12C renal; MDA-MB-231 breast; UO-31 renal; U251 CNS.
Holding throughout (assay): NCI anticancer screen, dose series, 48 h

Several values for one entry are separate records, joined by “and”; a condition that tells them apart may be missing. Equal entries are not always repeated.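 A five-concentration, 48-hour dose response in 96-well plates underlies each endpoint, interpolated linearly between surrounding concentrations. GI50 marks 50% less growth. TGI denotes the concentration required for complete inhibition of growth.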

Turning to `CN(C)CCCC1(c2ccc(F)cc2)OCc2cc(-c3csc4ccccc34)ccc21` (centres undefined), the GI50 in the assay on MALME-3M melanoma is 1.43 µM; with NCI-H226 lung, 1.8 µM; in the assay on KM12 colon, 1.71 µM; in the assay with HOP-92 NSCLC it was 1.4 µM; in the assay on T-47D breast it was 1.71 µM; in the assay on OVCAR-3 ovarian, 1.73 µM. Further, the GI50 with SN12C renal was 1.63 µM; in the assay with MDA-MB-231 breast it was 1.34 µM; in the assay on UO-31 renal it was 1.25 µM; in the assay on U251 CNS, 1.69 µM. Also, the TGI in the assay on MALME-3M melanoma amounted to 2.94 µM; with NCI-H226 lung, 3.52 µM; with KM12 colon, 3.16 µM; in the assay on HOP-92 NSCLC, 2.95 µM; with T-47D breast, 3.7 µM; in the assay on OVCAR-3 ovarian, 3.26 µM. The TGI turned out to be 3.13 µM with SN12C renal, 2.68 µM with MDA-MB-231 breast, 2.62 µM in the assay with UO-31 renal and 3.39 µM in the assay on U251 CNS.
As to `COc1cc(/C=C/C(=O)c2nc3cc(F)ccc3nc2C)cc(OC)c1OC`, the GI50 was 1.71 µM in the assay with MALME-3M melanoma; above 100 µM in the assay with NCI-H226 lung; 3.49 µM in the assay with KM12 colon; 2.81 µM with HOP-92 NSCLC; 4.91 µM in the assay on T-47D breast; 2.59 µM with OVCAR-3 ovarian. In addition, the GI50 in the assay with SN12C renal was 6.3 µM; in the assay on MDA-MB-231 breast, 8.49 µM; with UO-31 renal, 7.07 µM; in the assay with U251 CNS it was 3.54 µM. Further, the TGI in the assay with MALME-3M melanoma is above 100 µM; in the assay with NCI-H226 lung, above 100 µM; in the assay on KM12 colon it was above 100 µM; with HOP-92 NSCLC, above 100 µM; in the assay on T-47D breast it was above 100 µM; with OVCAR-3 ovarian, above 28.1 µM. Also, the TGI in the assay with SN12C renal, in the assay with MDA-MB-231 breast, with UO-31 renal and in the assay with U251 CNS was above 100 µM each time.
For `COc1cc(NC(=O)COc2ccccc2)c(C(N)=O)cc1OC`, the GI50 was 4 µM in the assay on MALME-3M melanoma; 42.8 µM with NCI-H226 lung; 0.442 µM in the assay on KM12 colon; 17.7 µM with HOP-92 NSCLC; 3.46 µM with T-47D breast; 0.472 µM in the assay on OVCAR-3 ovarian. Also, the GI50 in the assay with SN12C renal is 3.12 µM; in the assay with MDA-MB-231 breast it was 2.39 µM; in the assay with UO-31 renal, 13.5 µM; with U251 CNS, 0.777 µM. The TGI was above 100 µM with MALME-3M melanoma; above 100 µM in the assay on NCI-H226 lung; above 100 µM with KM12 colon; 52.5 µM in the assay with HOP-92 NSCLC; above 100 µM in the assay on T-47D breast; 10.5 µM with OVCAR-3 ovarian. Moreover, the TGI was above 100 µM in the assay on SN12C renal, 42.4 µM in the assay with MDA-MB-231 breast, above 100 µM in the assay on UO-31 renal and 17.9 µM in the assay with U251 CNS.
`CC(C)c1ccc2c(c1)CCC1C2CCCC1(C)NCc1ccccc1` (centres undefined): the GI50 in the assay on MALME-3M melanoma is 1.92 µM; in the assay with NCI-H226 lung it was 5.38 µM; in the assay with KM12 colon it was 3.07 µM; with HOP-92 NSCLC, 1.95 µM; in the assay with T-47D breast, 2.22 µM; in the assay on OVCAR-3 ovarian, 9.34 µM. The GI50 in the assay with SN12C renal is 5.56 µM; with MDA-MB-231 breast, 3.31 µM; in the assay on UO-31 renal it was 6.76 µM; in the assay with U251 CNS, 4.69 µM. In addition, the TGI came to 4.18 µM in the assay with MALME-3M melanoma; 18.4 µM in the assay with NCI-H226 lung; 11.6 µM in the assay on KM12 colon; 4.13 µM in the assay with HOP-92 NSCLC; 4.63 µM in the assay on T-47D breast; 24.4 µM in the assay on OVCAR-3 ovarian. Besides, the TGI in the assay with SN12C renal worked out at 19.2 µM; in the assay with MDA-MB-231 breast, 12.4 µM; with UO-31 renal, 21.1 µM; with U251 CNS it was 15.8 µM.
For the compound `C=C(C)c1nc(Oc2ccccc2)nc(Oc2ccccc2)n1`, the TGI in the assay on MALME-3M melanoma was determined as 27.6 µM; in the assay on NCI-H226 lung it was 36.7 µM; in the assay on KM12 colon it was 10.9 µM; in the assay on HOP-92 NSCLC, 10.8 µM; in the assay on T-47D breast, 21.6 µM; in the assay on OVCAR-3 ovarian, 15.2 µM. Moreover, the TGI in the assay on SN12C renal was 16.4 µM; in the assay on MDA-MB-231 breast, 28.9 µM; with UO-31 renal, 32.1 µM; in the assay on U251 CNS, 23.2 µM.
With `CCCCCCCCCCCCOC1C(C(COC2OC(C(O)CO)C3OC(C)(C)OC23)OC(=O)Nc2ccccc2)OC2OC(C)(C)OC21` (centres undefined), the GI50 is 9.2 µM in the assay with MALME-3M melanoma; 11.8 µM in the assay with NCI-H226 lung; 2.99 µM with KM12 colon; 7.29 µM in the assay with HOP-92 NSCLC; 5.02 µM in the assay with T-47D breast; 6.52 µM in the assay with OVCAR-3 ovarian. Moreover, the GI50 is 4.89 µM in the assay with SN12C renal, 8.7 µM in the assay with MDA-MB-231 breast, 9.01 µM in the assay with UO-31 renal and 5.44 µM in the assay with U251 CNS. The TGI with MALME-3M melanoma came out at 23.2 µM; in the assay with NCI-H226 lung, 26.4 µM; in the assay with KM12 colon, 8.76 µM; in the assay with HOP-92 NSCLC it was 20.1 µM; with T-47D breast, 16.6 µM; in the assay with OVCAR-3 ovarian it was 19.6 µM. In addition, the TGI in the assay with SN12C renal worked out at 16.6 µM; with MDA-MB-231 breast, 21.1 µM; in the assay with UO-31 renal, 23.7 µM; with U251 CNS, 18 µM.
Turning to `O=C(O)CSc1cc(NS(=O)(=O)c2ccc(Br)cc2)c2ccccc2c1O`, the GI50 in the assay on MALME-3M melanoma is 8.02 µM; with NCI-H226 lung, 20.1 µM; in the assay with KM12 colon it was 11.6 µM; in the assay with HOP-92 NSCLC, 13.5 µM; in the assay with T-47D breast, 4.84 µM; with OVCAR-3 ovarian, 2.58 µM. The GI50 in the assay with SN12C renal was 2.27 µM; in the assay with MDA-MB-231 breast, 2.72 µM; in the assay on UO-31 renal it was 12 µM; in the assay on U251 CNS, 15 µM. Further, the TGI worked out at 21.1 µM in the assay with MALME-3M melanoma; 44.9 µM in the assay with NCI-H226 lung; 25.7 µM with KM12 colon; 31.6 µM in the assay with HOP-92 NSCLC; 23.1 µM in the assay on T-47D breast; 9.09 µM in the assay with OVCAR-3 ovarian. The TGI with SN12C renal turned out to be 5.44 µM; in the assay with MDA-MB-231 breast, 8.08 µM; in the assay on UO-31 renal, 25.2 µM; in the assay on U251 CNS it was 30.9 µM.
Consider `O=C1NC(=O)C2C3C=CC(C12)C1C2C(=O)NC(=O)C2C31` (centres undefined), for which the GI50 in the assay on MALME-3M melanoma is above 785 µM; in the assay on NCI-H226 lung, above 484 µM; in the assay with KM12 colon it was above 1000 µM; in the assay with HOP-92 NSCLC it was above 1000 µM; in the assay on T-47D breast it was 480 µM; in the assay on OVCAR-3 ovarian, above 909 µM. Also, the GI50 was 419 µM with SN12C renal, above 801 µM in the assay on MDA-MB-231 breast and 596 µM with UO-31 renal. The TGI in the assay on MALME-3M melanoma was 250 µM and > 1000 µM; in the assay with NCI-H226 lung, 250 µM and > 762 µM; with KM12 colon, 250 µM and > 1000 µM; in the assay with HOP-92 NSCLC, 230 µM and > 1000 µM; with T-47D breast, above 1000 µM; in the assay with OVCAR-3 ovarian, 250 µM and > 1000 µM. In addition, the TGI was 250 µM and > 1000 µM with SN12C renal; above 1000 µM in the assay on MDA-MB-231 breast; 250 µM and > 1000 µM in the assay on UO-31 renal; 244 µM and > 1000 µM in the assay with U251 CNS.

Values taken from PubChem BioAssay (NCI).
